In series [1] the test system is FRC. Put plainly: Chondrogenesis by monochromatic staining of FRC cultured in the presence of type I collagen and various growth factors. The class given is cell-based, rat. Particulars: FRC in the presence of type I collagen. The method, then:
The growth and differentiation factor-induced chondrogenesis is highly specific to GDF-5. It was shown that ECM-dependent chondrogenesis by GDF-5 is highly specific, by evaluating the ability of several mitogens and prototype differentiation factors under the following conditions. Chondrogenesis was assessed by monochromatic staining of FRC cultured in the presence of type I collagen and various growth factors.

Series [2] has as its system GDF-5/type I collagen-induced chondrogenesis. Put plainly: Inhibitors of intracellular signaling mediators on GDF-5/type I collagen-induced chondrogenesis. The series is classed as cell-based. Particulars: GDF-5 in the context of type I collagen. From the text:
The molecular signaling mechanism by which GDF-5 induces chondrogenesis in the context of type I collagen was also examined using well-characterized inhibitors of intracellular signaling mediators. […] The known inhibitory effect of rapamycin on activation of p70S6 kinase indicate that GDF-5/type I collagen-induced chondrogenesis is mediated through p70S6 kinase activation.

The test system of series [3] is fetal rat calvarial cells (FRC's). Put plainly: Fetal rat calvarial cells plated on purified extracellular matrix proteins with GDF-5; chondrogenic nodule formation, alcian blue stain. The series is classed as cell-based. Particulars: GDF-5 100 ng/ml. The procedure: To show in vitro application, fetal rat calvarial cells (FRC's) were plated on various purified extracellular matrix proteins in the presence of recombinant human GDF-5 (100 ng/ml) for 3 weeks and scored for differentiation at the level of morphology, overall proteoglycan synthesis and deposition, and aggrecan and type II collagen expression. […] Chondrogenic nodules stained heavily with alcian blue and were positive for type II collagen and aggrecan-expression, as judged by immunohistochemical and transcriptional analyses. Cells in monolayer that surround the nodules were negative for the chondrogenic markers.
Plastic plates were first coated with different ECM proteins including type I and II collagen, type IV collagen, or fibronectin. […] Plastic culture 12 well (Costar, Cambridge, Mass.) were coated with 0.01% (w/v) of the indicated extracellular matrix proteins for 2 hours at 37° C. After removal of nonadsorbant protein, fetal rat calvarial cells were plated at a density of 2×10^5 cells/well in DMEM containing 10% FBS. Culture plates were then maintained for 21 days in culture media supplemented with or without GDF-5 (100 ng/ml). Plates were then stained overnight with alcian blue stain (0.5% w/v in 3% acetic acid), washed and photographed. For quantitation of alcian blue, cells were solubilized in 8M urea, and the amount of stain was quantitated using spectrophotometer (Molecular Devices, Sunnyvale, Calif.).

Series [4] concerns FRC cells. Put plainly: Semiquantitative PCR of aggrecan, type II collagen and type I collagen mRNA in FRC culture treated with GDF-5 in the presence of type I collagen. Particulars: FRC with GDF-5 in the presence of type I collagen. The series is classed as cell-based, rat. The source says:
To examine correlation of changes in cellular morphology with the process of chondrogenesis, total cellular RNA and protein were isolated from FRC culture treated with GDF-5 in the presence of type I collagen. Total cellular RNA isolated from FRC cells was subjected to a semiquantitative PCR analysis using specific primers designed to amplify aggrecan, type II collagen or type I collagen. […] Under these conditions, type I collagen mRNA expression decreased by about 20%. The expression of aggrecan and type II collagen was confirmed using slot blot analysis.

Series [5] deals with FRC cells. As to the kind of experiment: Immunoblot of total cell lysates for type II collagen or aggrecan. The series is classed as cell-based, rat. The method, then:
Total cell lysates (100 ug) were electrophoretically separated on a 8% or 5% SDSPAGE, transferred to immobilon-P and immunoblotted using antibody specific to type II collagen or aggrecan.
Background: In western blotting, separated proteins are transferred to a membrane and probed.

Series [6] has as its system FRC. Put plainly: FRC seeded in porous type I collagen matrix, RT-PCR and histology with alcian or Toludine blue staining. The series is classed as cell-based, rat. Particulars: GDF-5 100 ng/ml, 3 weeks. The method, then: A porous matrix fabricated from type I collagen was seeded by, 1×10^5 cell per implant (2×3×3 mm). Cells embedded in matrices were then cultured for 3 weeks in culture supplemented with or without GDF-5 (100 ng/ml). Total RNA isolated from each implant were then subjected to RT-PCR. […] In parallel the implant material was subject to histological evaluation followed by alcian or Toludine blue staining. […] Under these conditions FRC cells were not able to proliferate and differentiate in the ECM in the absence of GDF-5 as measured by histological evaluation total DNA, RNA or protein content.

For series [7], the system named is FRC cells. As to the kind of experiment: FRC in 3D collagen-based matrices of different porosity, with or without hyaluronic acid coating, semi-quantitative PCR. The class given is cell-based, rat. Particulars: only in matrices coated with hyaluronic acid with the highest porosity (about 300 micron); GDF-5 100 ng/ml, 3 weeks. The procedure:
Each matrix composite was either coated with or without hyaluronic acid, a major component of cartilage. The implants were then seeded with 1×10^5 cells per implant and cultured for 3 weeks in the presence of GDF-5 (100 ng/ml). Total RNA extracted from each implant were then subjected to semi-quantitative PCR analysis. […] Together these findings indicate that GDP-5 chondrogenesis activity is fully and potently synergized by a matrix which contain 1) high pore size (about 100-300 micron); and 2) is composed of type I collagen which is coated with hyaluronic acid.

Another series concerns Sprague-Dawley rats. Put plainly: Rat soft tissue implants, intramuscular, alkaline phosphatase activity and histology at 14 days. The class given is in vivo. From the text: In vivo activity of rhGDF-5 on collagen-based matrices.
In Vivo Assays, Rat Soft Tissue Implants: Matrix/growth factor combinations were implanted either subcutaneously in the thoracic region or intramuscularly in posterior tibial muscle pouches created by blunt dissection in 8 week old male Sprague-Dawley rats. At 14 days post-surgery, implants were harvested, weighed and processed for routine histology (fixed in 10% formalin, paraffin-embedded, sectioned to 6 μm, and hematoxylin and eosin stained). Alternatively, implants were extracted and assayed for alkaline phosphatase activity.

The test system of another series is rat limb bud cells. To be noted: cited from earlier work.
The test system of the next series is MC3T3-E1 cells. Particulars: well differentiated osteoblastic MC3T3-E1 cells; cited from earlier work.
Series [8] relates to rat osteoprogenitor cells ROB-C26. Particulars: cited from earlier work.
Series [9] relates to heterodimer of receptor for BMPs. Particulars: cited from earlier work.

Take IGF-II: growth factor: in the series on FRC [1], the stimulation of chondrogenesis result was “failed to stimulate chondrogenesis”.

For TGFb, in the series on FRC [1], the stimulation of chondrogenesis entry is listed as “completely failed to stimulate chondrogenesis”.

As for `CCCC(=O)Nc1ncnc2c1ncn2[C@@H]1O[C@@H]2COP(=O)(O)O[C@H]2[C@H]1OC(=O)CCC` [dibutyryl-cAMP], the “inhibition of ligand-dependent chondrogenesis” value (“inhibition” below) in [2] is “not”.

Consider bFGF: growth factor, for which the stimulation of chondrogenesis entry with FRC [1] is “failed to stimulate chondrogenesis”.

As to IGF-I: growth factor, in the series with FRC [1], the stimulation of chondrogenesis entry is listed as “failed to stimulate chondrogenesis”.

In the case of “GDF-5: growth and differentiation factor-5, a member of the bone morphogenetic protein (BMP) family that is involved in joint development”, the “formation of chondrogenic cell aggregate binding alcian blue stain” value in series [3] (ECM-coated plastic plates (0.01% w/v), 21 days) is reported as “stimulated the formation of chondrogenic cell aggregate”. For the same molecule, in [3] (FRC cultured in the presence of vehicle alone, type IV collagen or fibronectin, 21 days), the “formation of characteristic nodules” value is “fails to stimulate the formation of characteristic nodules”. Further, in series [3] (FRC's plated on fibronectin, type IV collagen or tissue culture plastic, 3 weeks), the chondrogenesis entry is “failed to stimulate chondrogenesis”. For the same molecule, in series [3] (FRC's plated on type I or type II collagen, 3 weeks), the chondrogenic nodule formation result was “stimulated chondrogenic nodule formation”. In the series on FRC cells [4], the “decrease of type I collagen mRNA expression” value is on record as “about 20%”, the “increase of aggrecan mRNA expression” value is reported as about 3 and the “increase of type II collagen mRNA expression” value is given as “around 2”. Further, the “expression of type II collagen or aggrecan” value in the series on FRC cells [5] (FRC cells cultured in the absence of type I collagen) is listed as “fails to stimulate expression”. Moreover, the “steady state level of type II collagen and aggrecan” value in the series with FRC cells [5] (FRC cultured with type I collagen) is reported as “significant increase”. In addition, in the series on FRC [6] (1x10^5 cells per implant), the “expression of aggrecan and type II collagen (RT-PCR)” value is on record as “induced expression”. For the same molecule, the “cellular morphology of FRC (alcian blue staining, cell shape)” value with FRC [6] (histology) is “marked changes in cellular morphology”. Besides, in the series on FRC cells [7], the “expression level of type II collagen and aggrecan” value is reported as “significant increase”. In addition, the “alkaline phosphatase activity and chondrogenesis” value with Sprague-Dawley rats (CN/HA matrices loaded with 1, 5 and 50 μg, intramuscular in rats) was “dose-depended increase”. Further, the “chondrogenesis and full terminal differentiation” value in the series with Sprague-Dawley rats (mineralized collagen combined with rhGDF-5, intramuscular in rats) is given as “very little evidence”. For the same molecule, in the series with rat limb bud cells, the “mesenchymal aggregation and chondrogenesis” value is “stimulates”. For the same molecule, the alkaline phosphatase activity result in the series on MC3T3-E1 cells is recorded as “fails to stimulate”. Besides, the alkaline phosphatase activity result in series [8] is on record as “stimulates”. The “binding to heterodimer of receptor for BMPs” value in series [9] is “binds”.

On to `CNc1ccc2oc(C[C@H]3O[C@@]4(CC[C@H]3C)O[C@H]([C@H](C)C(=O)c3ccc[nH]3)[C@H](C)C[C@H]4C)nc2c1C(=O)O` [A23187], for which the “inhibition” value in series [2] is recorded as “completely inhibited”.

Regarding `[Na+].[Na+].[Na+].[O]=[V]([O-])([O-])[O-]` [Na3VO4], the “inhibition” value in series [2] is recorded as “not”.

As for `O=C(O)CN(CCOCCOCCN(CC(=O)O)CC(=O)O)CC(=O)O` [EGTA], the “inhibition” value in series [2] is “not”.

The values are drawn from patent US7070942B2, “Method of inducing or enhancing chondrogenesis with extracellular matrix containing GDF-5” (DePuy Spine, Inc., priority 1998, dated 2006).
